{
  "source": "paper PMC7655109",
  "about": "“High-resolution structures of multiple 5-HT3AR-setron complexes reveal a novel mechanism of competitive inhibition” (eLife, 2020)",
  "type_in_all_cases": "cell-based",
  "key": {"[1]": {"target": "T1, 5-HT3AR (serotonin (3) receptor subunit A, homopentamer) (Mus musculus, UniProt P23979)", "T1 construct": "gene Htr3a; full-length, C-terminal 1D4-tag and four N-terminal strep-tags; modelled Thr7–Leu335 and Leu397–Ser462", "T1 sequence (P23979 34-483 isoform P23979-2)": "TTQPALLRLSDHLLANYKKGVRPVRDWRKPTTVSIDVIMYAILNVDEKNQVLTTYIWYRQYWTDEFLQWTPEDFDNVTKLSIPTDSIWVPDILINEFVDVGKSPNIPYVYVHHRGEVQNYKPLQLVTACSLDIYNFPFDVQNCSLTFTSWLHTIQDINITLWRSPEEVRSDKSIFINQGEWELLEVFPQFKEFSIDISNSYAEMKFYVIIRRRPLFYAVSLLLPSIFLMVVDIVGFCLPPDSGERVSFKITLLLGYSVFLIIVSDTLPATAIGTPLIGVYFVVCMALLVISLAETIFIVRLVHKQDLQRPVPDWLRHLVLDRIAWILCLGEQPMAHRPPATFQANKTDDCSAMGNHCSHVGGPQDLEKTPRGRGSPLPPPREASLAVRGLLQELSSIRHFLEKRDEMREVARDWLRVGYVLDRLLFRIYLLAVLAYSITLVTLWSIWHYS", "test": "cryo-EM structure ([…] Å); also TEVC inhibition of serotonin currents in oocytes"}, "[2]": {"target": "T1, 5-HT3AR (serotonin (3) receptor subunit A, homopentamer)", "test": "cryo-EM structure ([…] Å); also TEVC inhibition of serotonin currents in oocytes", "remark": "listed apart in the source"}, "[3]": {"target": "T2, 5-HT3AR (serotonin (3) receptor subunit A, homopentamer) (Mus musculus, UniProt P23979)", "T2 construct": "gene Htr3a; 5-HT3AR expressed in Xenopus laevis oocytes", "test": "two-electrode voltage clamp in oocytes, inhibition of serotonin-induced current on co-application", "T2 sequence (P23979 24-489)": "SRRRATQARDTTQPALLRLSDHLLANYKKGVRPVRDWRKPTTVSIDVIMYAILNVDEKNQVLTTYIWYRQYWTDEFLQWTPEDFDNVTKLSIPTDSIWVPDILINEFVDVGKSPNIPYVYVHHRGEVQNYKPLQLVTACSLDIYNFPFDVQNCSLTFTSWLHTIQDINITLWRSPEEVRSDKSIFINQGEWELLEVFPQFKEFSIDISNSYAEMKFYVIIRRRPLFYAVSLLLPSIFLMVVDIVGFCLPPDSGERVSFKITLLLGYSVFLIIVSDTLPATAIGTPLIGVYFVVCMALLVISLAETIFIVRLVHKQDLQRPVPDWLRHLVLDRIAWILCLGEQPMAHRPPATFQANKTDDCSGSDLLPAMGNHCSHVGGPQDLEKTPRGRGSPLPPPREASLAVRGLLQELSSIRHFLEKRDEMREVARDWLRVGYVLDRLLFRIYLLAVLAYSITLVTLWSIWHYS"}, "[4]": {"target": "T1, 5-HT3AR (serotonin (3) receptor subunit A, homopentamer)", "test": "cryo-EM structure ([…] Å); also TEVC inhibition of serotonin currents in oocytes", "remark": "listed apart in the source"}},
  "data": [
    {"smiles": "O=C1c2cccc3c2[C@H](CCC3)CN1[C@@H]1CN2CCC1CC2", "note": "[palonosetron]", "values": [
      {"measurement": "cryo-EM structure (3.32 Å); also TEVC inhibition of serotonin currents in oocyte", "setting": "[1]", "value": "~ 1 nM"}
    ]},
    {"smiles": "Cc1[nH]cnc1CN1CCc2c(c3ccccc3n2C)C1=O", "note": "[alosetron]", "values": [
      {"measurement": "potency for TEVC inhibition of serotonin currents", "setting": "[2]", "value": "~ 0.1 nM"}
    ]},
    {"smiles": "CN1C2CCCC1CC(NC(=O)c1nn(C)c3ccccc13)C2", "note": "(stereo not shown) [granisetron]", "values": [
      {"measurement": "two-electrode voltage clamp in oocytes, inhibition of serotonin-induced current", "setting": "[3]", "value": "~ 1 nM"}
    ]},
    {"smiles": "Cc1nccn1CC1CCc2c(c3ccccc3n2C)C1=O", "note": "(stereo not shown) [ondansetron]", "values": [
      {"measurement": "inhibition of serotonin currents in oocytes", "setting": "[4]", "value": "~ 0.1 nM"}
    ]}
  ]
}
